The text below walks through data of ChEMBL document CHEMBL1152470, “Antimicrobial activities of tigecycline and other broad-spectrum antimicrobials tested against serine carbapenemase- and metallo-beta-lactamase-producing Enterobacteriaceae: report from the SENTRY Antimicrobial Surveillance Program” (2008).

Common to all, as to type: functional
In assay [1] the test system is Enterobacteriaceae. The assay can be described thus: Antimicrobial activity against carbapenemase producing Enterobacteriaceae assessed as susceptible isolates by CLSI breakpoint assay.
The subject of assay [2] is Enterobacter sp. The experiment in a line: Antimicrobial activity against carbapenemase producing Enterobacter sp. by CLSI broth microdilution method. On the technique in general: Dilution methods test growth across graded concentrations, often in twofold steps.
The test system of assay [3] is Enterobacteriaceae. The experiment in a line: Antimicrobial activity against carbapenemase producing Enterobacteriaceae by CLSI broth microdilution method.
Assay [4] deals with Klebsiella sp. The experiment in a line: Antimicrobial activity against Klebsiella sp. assessed as susceptible isolates by CLSI breakpoint assay.
Assay [5] concerns Enterobacter sp. The experiment in a line: Antimicrobial activity against carbapenemase producing Enterobacter sp. assessed as susceptible isolates by CLSI breakpoint assay.
Assay [6] deals with Klebsiella sp. The experiment in a line: Antimicrobial activity against Klebsiella sp. assessed as resistant isolates by CLSI breakpoint assay.
Assay [7] has as its system Klebsiella sp. The assay can be described thus: Antimicrobial activity against Klebsiella sp. by CLSI broth microdilution method.
Assay [8] relates to Enterobacter sp. The assay can be described thus: Antimicrobial activity against carbapenemase producing Enterobacter sp. assessed as resistant isolates by CLSI breakpoint assay.
Assay [9] concerns Enterobacteriaceae. The experiment in a line: Antimicrobial activity against carbapenemase producing Enterobacteriaceae assessed as resistant isolates by CLSI breakpoint assay.
The subject of assay [10] is Enterobacter hormaechei. The experiment in a line: Antimicrobial activity against KPC2 carbapenemase producing Enterobacter hormaechei […].
Assay [11] relates to Enterobacter cloacae. The assay can be described thus: Antimicrobial activity against IMP1 carbapenemase producing Enterobacter cloacae […].
For assay [12], the system named is Klebsiella pneumoniae. The experiment in a line: Antimicrobial activity against KPC2/3 carbapenemase producing Klebsiella pneumoniae […].
In assay [13] the test system is Enterobacter cloacae. The experiment in a line: Antimicrobial activity against VIM1 carbapenemase producing Enterobacter cloacae […].
Assay [14] deals with Citrobacter freundii. The experiment in a line: Antimicrobial activity against KPC2/3 carbapenemase producing Citrobacter freundii […].
Assay [15] has as its system Klebsiella oxytoca. The experiment in a line: Antimicrobial activity against KPC2/3 carbapenemase producing Klebsiella oxytoca […].
For assay [16], the system named is Serratia marcescens. The experiment in a line: Antimicrobial activity against KPC2/3 carbapenemase producing Serratia marcescens […].
For assay [17], the system named is Enterobacter cloacae. The assay can be described thus: Antimicrobial activity against KPC2/3 carbapenemase producing Enterobacter cloacae […].
In assay [18] the test system is Citrobacter freundii. The experiment in a line: Antimicrobial activity against KPC2 carbapenemase producing Citrobacter freundii […].
Assay [19] has as its system Serratia marcescens. The experiment in a line: Antimicrobial activity against SME1 carbapenemase producing Serratia marcescens […].
The test system of assay [20] is Klebsiella pneumoniae. The assay can be described thus: Antimicrobial activity against KPC2 carbapenemase producing Klebsiella pneumoniae […].
Assay [21] has as its system Klebsiella oxytoca. The assay can be described thus: Antimicrobial activity against KPC3 carbapenemase producing Klebsiella oxytoca […].
In assay [22] the test system is Klebsiella pneumoniae. The experiment in a line: Antimicrobial activity against VIM1 carbapenemase producing Klebsiella pneumoniae […].
The subject of assay [23] is Pluralibacter gergoviae. The assay can be described thus: Antimicrobial activity against KPC3 carbapenemase producing Enterobacter gergoviae […].
For assay [24], the system named is Citrobacter freundii. The assay can be described thus: Antimicrobial activity against KPC3 carbapenemase producing Citrobacter freundii […].
The subject of assay [25] is Klebsiella oxytoca. The experiment in a line: Antimicrobial activity against KPC2 carbapenemase producing Klebsiella oxytoca […].
The subject of assay [26] is Enterobacter cloacae. The experiment in a line: Antimicrobial activity against KPC2 carbapenemase producing Enterobacter cloacae […].
Assay [27] concerns Enterobacter cloacae. The experiment in a line: Antimicrobial activity against NMC-A carbapenemase producing Enterobacter cloacae […].
Assay [28] has as its system Escherichia coli. The assay can be described thus: Antimicrobial activity against KPC2/3 carbapenemase producing Escherichia coli […].
The subject of assay [29] is Proteus mirabilis. The assay can be described thus: Antimicrobial activity against Proteus mirabilis.
Assay [30] has as its system Enterobacteriaceae. The assay can be described thus: Antimicrobial activity against Enterobacteriaceae.

Values after ≈ are worked out from the molar mass of the structure shown.

Usually MIC50 stands for the lowest concentration that inhibits either 50% of growth or 50% of the strains tested, depending on the study. As a reminder, the MIC90 is an inhibitory concentration at the 90% level, which refers to growth in some studies and to a panel of isolates in others. On to GENTAMICIN, for which the Activity was 73.3% in assay [1]; 58.3% in [4]; 42.9% in [5]; 31.2% in assay [6]; 38.1% in [8]. For the same compound, the values for the MIC50 in assay [2], in assay [3] and in [7] were 8 µg/mL, 4 µg/mL and less than 2 µg/mL, respectively. Further, the MIC90 in [2], in [3] and in assay [7] was greater than 8 µg/mL in each case.
As for `C[C@@H](O)[C@H]1C(=O)N2C(C(=O)O)=C(SCCNC=N)C[C@H]12` [IMIPENEM ANHYDROUS], the Activity was 37.5% in assay [1]; 21.7% in assay [4]; 54.2% in [5]; 46.7% in [6]; 17.7% in [8]. Besides, the MIC50 in assay [2] was 4 µg/mL (≈ 13.4 µM); in [3] it was 8 µg/mL (≈ 26.7 µM); in [7], 8 µg/mL (≈ 26.7 µM). Further, the MIC90 in [2] was greater than 8 µg/mL; in assay [3], greater than 8 µg/mL; in assay [7], 16 µg/mL (≈ 53.4 µM).
For the compound POLYMYXIN B, the Activity in [1] worked out at 88.1%; in assay [9], 11.9%; in assay [4], 93.3%; in [5], 95.2%; in assay [6], 6.7%; in [8], 4.8%. Moreover, the MIC50 in [2], in assay [3] and in assay [7] was less than 1 µg/mL throughout. Also, the MIC90 in assay [2] was less than 1 µg/mL; in [3], 4 µg/mL; in assay [7], less than 1 µg/mL.
The MIC is the lowest concentration that inhibits growth of the organism. On to `CN(C)c1cc(NC(=O)CNC(C)(C)C)c(O)c2c1C[C@H]1C[C@H]3[C@H](N(C)C)C(O)=C(C(N)=O)C(=O)[C@@]3(O)C(O)=C1C2=O` [TIGECYCLINE], for which the MIC came to 2 µg/mL (≈ 3.41 µM) in assay [10]; 0.25 µg/mL (≈ 0.427 µM) in assay [11]; 0.25 µg/mL (≈ 0.427 µM) in [12]; 0.25 µg/mL (≈ 0.427 µM) in assay [13]; 0.25 µg/mL (≈ 0.427 µM) in assay [14]; 0.25 µg/mL (≈ 0.427 µM) in assay [15]. Moreover, the minimum inhibitory concentration (MIC) was 0.5 µg/mL (≈ 0.854 µM) in assay [16]; 0.12 µg/mL (≈ 0.205 µM) in assay [17]; 1 µg/mL (≈ 1.71 µM) in assay [18]; 0.5 µg/mL (≈ 0.854 µM) in assay [19]; 1 µg/mL (≈ 1.71 µM) in [20]; 0.5 µg/mL (≈ 0.854 µM) in assay [21]. The minimal inhibitory concentration (MIC) in assay [22] was 0.12 µg/mL (≈ 0.205 µM); in assay [23] it was 0.25 µg/mL (≈ 0.427 µM); in assay [24], 0.12 µg/mL (≈ 0.205 µM); in assay [25], 0.12 µg/mL (≈ 0.205 µM); in [26] it was 0.5 µg/mL (≈ 0.854 µM); in assay [27] it was 0.12 µg/mL (≈ 0.205 µM). The same compound had an MIC in assay [28] of 0.12 µg/mL (≈ 0.205 µM). The Activity in assay [1] stood at 100%; in assay [9] it was 0%; in [4], 100%; in assay [5], 100%; in [6], 0%; in assay [8], 0%. Moreover, the MIC50 in [2] worked out at 0.25 µg/mL (≈ 0.427 µM); in assay [3], 0.5 µg/mL (≈ 0.854 µM); in assay [7], 1 µg/mL (≈ 1.71 µM). In addition, the MIC90 in [2] came to 0.5 µg/mL (≈ 0.854 µM); in assay [3], 1 µg/mL (≈ 1.71 µM); in assay [7] it was 2 µg/mL (≈ 3.41 µM).
On to `CN(C)[C@@H]1C(O)=C(C(N)=O)C(=O)[C@@]2(O)C(O)=C3C(=O)c4c(O)cccc4[C@@](C)(O)[C@H]3C[C@@H]12` [TETRACYCLINE], for which the Activity in assay [1] was determined as 35.6%; in [9], 19.2%; in assay [4], 66.7%; in assay [5], 70.8%; in [6], 13.3%; in assay [8], 20.8%. In addition, the MIC50 in [2], in [3] and in assay [7] was 4 µg/mL (≈ 9 µM) each time. Further, the MIC90 in [2], in assay [3] and in assay [7] was greater than 8 µg/mL throughout.
In the case of `NCC[C@H](O)C(=O)N[C@@H]1C[C@H](N)[C@@H](O[C@H]2O[C@H](CN)[C@@H](O)[C@H](O)[C@H]2O)[C@H](O)[C@H]1O[C@H]1O[C@H](CO)[C@@H](O)[C@H](N)[C@H]1O` [AMIKACIN], the Activity is 73.3% in assay [1]; 8.3% in [9]; 53.3% in [4]; 95.2% in assay [5]; 13.3% in assay [6]; 4.8% in [8]. The MIC50 came to 2 µg/mL (≈ 3.42 µM) in [2], 8 µg/mL (≈ 13.7 µM) in assay [3] and 16 µg/mL (≈ 27.3 µM) in [7]. Besides, the MIC90 in assay [2] is 16 µg/mL (≈ 27.3 µM); in assay [3], 32 µg/mL (≈ 54.6 µM); in assay [7], greater than 32 µg/mL.
`C[C@@H](O)[C@H]1C(=O)N2C(C(=O)O)=C(S[C@@H]3CN[C@H](C(=O)N(C)C)C3)[C@H](C)[C@H]12` [MEROPENEM]: the Activity in assay [1] was found to be 32.7%; in assay [9], 50%; in assay [4] it was 20%; in assay [5], 33.3%; in [6], 61.7%; in assay [8], 41.7%. The MIC50 in assay [2] was 8 µg/mL (≈ 20.9 µM); in [3], 8 µg/mL (≈ 20.9 µM); in assay [7] it was greater than 8 µg/mL. For the same compound, the MIC90 in assay [2], in [3] and in assay [7] was greater than 8 µg/mL each time. The MIC in [29] is no less than 16 µg/mL; in assay [30], no less than 2 µg/mL.
As for `C[C@@H](O)[C@H]1C(=O)N2C(C(=O)O)=C(S[C@@H]3CN[C@H](C(=O)Nc4cccc(C(=O)O)c4)C3)[C@H](C)[C@H]12`, the Activity in assay [1] was determined as 7.7%; in assay [9], 73.1%; in [4], 5%; in assay [5], 8.3%; in assay [6], 83.3%; in assay [8], 12.5%. Moreover, the MIC50 in [2] was greater than 8 µg/mL; in assay [3], 8 µg/mL (≈ 16.8 µM); in assay [7], greater than 8 µg/mL. Also, the MIC90 in [2] is greater than 16 µg/mL; in assay [3], 32 µg/mL (≈ 67.3 µM); in assay [7], greater than 32 µg/mL.
